Test: molar heat capacity at constant volume
Conditions: Fluid (supercritical or subcritical phases), Vacuum adiabatic calorimetry

CCC(C)O (stereo not given) [butan-2-ol]
Conditions | molar heat capacity at constant volume [J/K/mol]
527.47 K, Mass density=142.27 kg/m3 | 538.57
527.66 K, Mass density=142.27 kg/m3 | 541.75
527.84 K, Mass density=142.27 kg/m3 | 547.68
527.89 K, Mass density=142.27 kg/m3 | 524.19
527.91 K, Mass density=142.27 kg/m3 | 561.92
527.93 K, Mass density=142.27 kg/m3 | 439.91
527.95 K, Mass density=142.27 kg/m3 | 388.84
527.97 K, Mass density=142.27 kg/m3 | 388.92
527.99 K, Mass density=142.27 kg/m3 | 375.57
528.01 K, Mass density=142.27 kg/m3 | 386.62
528.02 K, Mass density=142.27 kg/m3 | 388.84
528.02 K, Mass density=403.55 kg/m3 | 319.46
528.21 K, Mass density=142.27 kg/m3 | 337.77
528.21 K, Mass density=403.55 kg/m3 | 320.21
528.39 K, Mass density=403.55 kg/m3 | 321.69
528.58 K, Mass density=403.55 kg/m3 | 321.69
528.76 K, Mass density=403.55 kg/m3 | 324.65
528.95 K, Mass density=142.27 kg/m3 | 295.37
528.95 K, Mass density=403.55 kg/m3 | 322.43
529.13 K, Mass density=142.27 kg/m3 | 274.69
529.13 K, Mass density=403.55 kg/m3 | 326.14
529.31 K, Mass density=142.27 kg/m3 | 275.36
529.31 K, Mass density=403.55 kg/m3 | 306.86
529.5 K, Mass density=403.55 kg/m3 | 232
529.68 K, Mass density=403.55 kg/m3 | 229.78
529.87 K, Mass density=403.55 kg/m3 | 227.55
530.05 K, Mass density=142.27 kg/m3 | 274.1
530.23 K, Mass density=142.27 kg/m3 | 282.55
530.23 K, Mass density=403.55 kg/m3 | 227.55
530.42 K, Mass density=142.27 kg/m3 | 282.33
530.42 K, Mass density=403.55 kg/m3 | 228.29
530.6 K, Mass density=403.55 kg/m3 | 232
530.79 K, Mass density=184.89 kg/m3 | 471.41
530.79 K, Mass density=403.55 kg/m3 | 229.78
530.97 K, Mass density=184.89 kg/m3 | 466.37
530.97 K, Mass density=403.55 kg/m3 | 232
531.15 K, Mass density=184.89 kg/m3 | 474.16
531.15 K, Mass density=347.06 kg/m3 | 363.2
531.15 K, Mass density=403.55 kg/m3 | 229.78
531.34 K, Mass density=184.89 kg/m3 | 489.72
531.34 K, Mass density=347.06 kg/m3 | 356.52
531.34 K, Mass density=403.55 kg/m3 | 233.48
531.52 K, Mass density=184.89 kg/m3 | 492.32
531.52 K, Mass density=347.06 kg/m3 | 358.01
531.52 K, Mass density=403.55 kg/m3 | 233.48
531.7 K, Mass density=184.89 kg/m3 | 488.16
531.7 K, Mass density=284.93 kg/m3 | 365.79
531.7 K, Mass density=301.19 kg/m3 | 380.99
531.7 K, Mass density=347.06 kg/m3 | 360.23
531.7 K, Mass density=403.55 kg/m3 | 237.19
531.89 K, Mass density=184.89 kg/m3 | 479.34
531.89 K, Mass density=284.93 kg/m3 | 377.35
531.89 K, Mass density=301.19 kg/m3 | 380.99
531.89 K, Mass density=347.06 kg/m3 | 364.68
531.89 K, Mass density=403.55 kg/m3 | 239.41
532.07 K, Mass density=184.89 kg/m3 | 478.97
532.07 K, Mass density=245.67 kg/m3 | 434.57
532.07 K, Mass density=284.93 kg/m3 | 387.43
532.07 K, Mass density=347.06 kg/m3 | 363.94
532.07 K, Mass density=403.55 kg/m3 | 238.67
532.26 K, Mass density=184.89 kg/m3 | 490.54
532.26 K, Mass density=245.67 kg/m3 | 439.02
532.26 K, Mass density=286.65 kg/m3 | 404.56
532.26 K, Mass density=301.19 kg/m3 | 388.4
532.26 K, Mass density=347.06 kg/m3 | 364.68
532.26 K, Mass density=403.55 kg/m3 | 236.45
532.44 K, Mass density=245.67 kg/m3 | 433.61
532.44 K, Mass density=286.65 kg/m3 | 410.63
532.44 K, Mass density=301.19 kg/m3 | 386.17
532.44 K, Mass density=347.06 kg/m3 | 361.71
532.62 K, Mass density=184.89 kg/m3 | 485.64
532.62 K, Mass density=198.25 kg/m3 | 477.94
532.62 K, Mass density=245.67 kg/m3 | 439.84
532.62 K, Mass density=286.65 kg/m3 | 417.75
532.62 K, Mass density=301.19 kg/m3 | 388.4
532.62 K, Mass density=347.06 kg/m3 | 361.71
532.62 K, Mass density=403.55 kg/m3 | 232
532.81 K, Mass density=184.89 kg/m3 | 501.51
532.81 K, Mass density=198.25 kg/m3 | 476.53
532.81 K, Mass density=245.67 kg/m3 | 441.76
532.81 K, Mass density=286.65 kg/m3 | 423.83
532.81 K, Mass density=301.19 kg/m3 | 385.43
532.81 K, Mass density=347.06 kg/m3 | 364.68
532.81 K, Mass density=403.55 kg/m3 | 231.26
532.81 K, Mass density=474.07 kg/m3 | 191.23
532.99 K, Mass density=184.89 kg/m3 | 501.8
532.99 K, Mass density=198.25 kg/m3 | 476.23
532.99 K, Mass density=245.67 kg/m3 | 435.17
532.99 K, Mass density=286.65 kg/m3 | 421.6
532.99 K, Mass density=301.19 kg/m3 | 390.62
532.99 K, Mass density=347.06 kg/m3 | 370.61
532.99 K, Mass density=474.07 kg/m3 | 191.23
533.17 K, Mass density=184.89 kg/m3 | 502.32
533.17 K, Mass density=198.25 kg/m3 | 482.38
533.17 K, Mass density=245.67 kg/m3 | 443.91
533.17 K, Mass density=284.93 kg/m3 | 404.04
533.17 K, Mass density=286.65 kg/m3 | 417.75
533.17 K, Mass density=301.19 kg/m3 | 393.59
533.17 K, Mass density=347.06 kg/m3 | 373.57
533.17 K, Mass density=474.07 kg/m3 | 197.16
533.36 K, Mass density=184.89 kg/m3 | 511.07
533.36 K, Mass density=198.25 kg/m3 | 490.83
533.36 K, Mass density=245.67 kg/m3 | 447.32
533.36 K, Mass density=284.93 kg/m3 | 410.71
533.36 K, Mass density=286.65 kg/m3 | 416.27

Source: the NIST ThermoML archive (doi:10.1016/j.tca.2013.08.031)
